Laboratory results taken from patent publication US6716829B2, “Aldosterone antagonist and cyclooxygenase-2 inhibitor combination therapy to prevent or treat inflammation-related cardiovascular disorders” (Pharmacia Corporation, priority 2000, dated 2004).
Values joined by “and” are separate entries in the source; they are usually repeats but may differ in a detail not shown here. Equal entries are not always repeated.

Assay: Assay C: body weight, left and right ventricle weight, tibia length (myocardial hypertrophy)
Type: in vivo, Male Sprague-Dawley rats
Settings: for Body weight: aldosterone + salt at days 7, 14 and 30 vs vehicle + salt, eplerenone effect at day 30; for Ventricular hypertrophy (absolute ventricular weights, ventricular weight to tibia length ratios): 7 to 30 days
Description: The procedure of Assay B was expanded upon in a further study. […] Myocardial tissue from animals in each treatment group was examined after 7, 14, or 30 days of treatment.
Male Sprague-Dawley rats, weighing 230 to 250 g, (Harlan Sprague-Dawley Industries, Indianapolis, IN) were housed in a room 12-hours light/12-hours dark daily cycle at an ambient temperature of 22±1° C. (n=96). Animals were allowed one week to adjust after arrival and had free access to TEKLAD 22/5 rodent diet (Harlan TEKLAD, Madison, Wis.) and tap water until the initiation of the experiment.
Potassium chloride supplementation was added to the saline solution in order to prevent the potential hypokalemia associated with aldosterone excess.
At the time of the surgery, an Alzet 2002 osmotic minipump (Alza Corp., Palo Alto, Calif.) containing either vehicle (9% ethanol/87% propylene glycol/4% dH2O) or 1.0 mg/mL d-aldosterone (Sigma Chemical, St. Louis, Mo.) was inserted subcutaneously at the nape of the neck. Aldosterone was administered at a dose of 0.75 µg/hour. […] Animals were sacrificed from each group (n=8-13) after 7, 14, or 30 days of treatment.
Animals to be sacrificed after 7 or 14 days of treatment were uninephrectomized and implanted with an Alzet minipump. Animals treated for 30 days were uninephrectomized, fitted for Alzet minipumps, and implanted with radio telemetry units (model #TA11PA-C40, Data Sciences Inc., St. Paul, Minn.) according to the following procedure. Animals were anesthetized with 5% isoflurane (SOLVAY Animal Health Inc., Mendota Heights, Minn.), which was delivered in O2 using a VMS anesthesia instrument (Matrix Medical, Inc., Orchard Park, N.Y.). Anesthesia was maintained with 1-2% isoflurane throughout the surgical procedure. The surgery site was clipped, scrubbed with nolvasan, and sprayed with betadine. A rostral-caudal incision was made through the skin from the base of the rib cage to the pubic region using a #11 scalpel blade. A second incision was made through the muscles of the abdominal wall to expose the peritoneal cavity. The […], renal artery and vein of the left kidney were isolated, tied off with 4-0 silk, and the kidney excised and discarded. Organs were carefully displaced with tissue retractors in order to expose the abdominal aorta. A 1.5 cm segment just rostral to the bifurcation of the abdominal aorta into the iliac arteries was cleared of excessive connective tissue and 4-0 silk was used to make an anchor adjacent to the aorta. A microvascular clip was then placed at both ends of the cleaned region to stop excessive blood flow. Using a bent, 21 gauge needle, the abdominal aorta was penetrated. The cannula of the radio telemetry unit was inserted and stabilized in the aorta using the 4-0 silk anchor. Organs were repositioned and the telemetry unit was placed over the organs. Using a non-interrupted suture pattern with 4-0 silk, the abdominal wall was closed, and the skin was subsequently closed using a 4-0 silk in an interrupted suture pattern. Animals were injected around the sutures with 100 μL of the anesthetic Marcaine HCl (Sanofi Winthrop Pharmaceuticals, New York, N.Y.) and given an injection (i.m.) of the antibiotic Mandol (Eli Lilly & Co., Indianapolis, Ind.). Post-operative care included monitoring the animals on a heating pad during recovery from anesthesia until sternal recumbency was reestablished. Animals were monitored daily for signs of distress and infection at the surgical site. Animals displaying continued discomfort after surgery were treated with 0.1-0.5 mg/kg, s.c. Buphrenorphine (Rickett & Colman Pharmaceuticals, Inc. Richmond, Va.). Animals were then placed on tap water and TEKLAD 22/5 rodent diet (Harlan TEKLAD, Madison, Wis.).

[1] = 14-day protocol, individual rats and group Mean, listed as Aldosterone + salt
[2] = 14-day protocol, individual rats and group Mean, listed as Aldosterone + salt, mean
[3] = 30-day protocol, individual rats and group Mean, listed as Aldosterone + salt
[4] = 30-day protocol, individual rats and group Mean, listed as Aldosterone + salt, group mean
[5] = aldosterone + salt, eplerenone 100 mg/kg/day
[6] = mean ± SEM after 7 days of treatment, aldosterone + salt, eplerenone 100 mg/kg/day
[7] = mean ± SEM after 14 days of treatment, aldosterone + salt, eplerenone 100 mg/kg/day
[8] = mean ± SEM after 30 days of treatment, eplerenone dose 100 mg/kg/day
[9] = 14-day protocol, individual rats and group Mean, listed as Eplerenone + aldosterone + salt
[10] = 14-day protocol, individual rats and group Mean, listed as Eplerenone + aldosterone + salt, mean
[11] = individual rats and group mean, 7 days of treatment, aldosterone + salt, eplerenone 100 mg/kg/day
[12] = individual rats and group mean, 7 days of treatment, aldosterone + salt, eplerenone 100 mg/kg/day, group mean

## C[C@]12CCC(=O)C=C1CC[C@@H]1[C@@H]2[C@@H](O)C[C@]2(C=O)[C@@H](C(=O)CO)CC[C@@H]12 [Aldosterone]
[1]
  Left Ventricle Weight: 846 mg and 784 mg and 912 mg and 720 mg and 923 mg and 854 mg and 894 mg and 859 mg and 750 mg and 818 mg and 746 mg and 700 mg
  Left Ventricle Weight/ Tibia Length: 223 mg/cm and 206 mg/cm and 234 mg/cm and 189 mg/cm and 237 mg/cm and 225 mg/cm and 229 mg/cm and 220 mg/cm and 197 mg/cm and 215 mg/cm and 202 mg/cm and 194 mg/cm
  Right Ventricle Weight: 194 mg and 189 mg and 208 mg and 174 mg and 217 mg and 186 mg and 216 mg and 171 mg and 153 mg and 195 mg and 172 mg
  Right Ventricle Weight/ Tibia Length: 51 mg/cm and 50 mg/cm and 53 mg/cm (3×) and 56 mg/cm and 49 mg/cm and 55 mg/cm and 44 mg/cm and 40 mg/cm and 48 mg/cm
[2]
  Left Ventricle Weight: 817 mg
  Left Ventricle Weight/ Tibia Length: 214 mg/cm
  Right Ventricle Weight: 189 mg
  Right Ventricle Weight/ Tibia Length: 50 mg/cm
[3]
  Left Ventricle Weight: 934 mg and 726 mg and 963 mg and 942 mg and 1030 mg and 837 mg and 962 mg and 873 mg and 919 mg
  Left Ventricle Weight/ Tibia Length: 234 mg/cm and 191 mg/cm and 247 mg/cm (2×) and 242 mg/cm (2×) and 264 mg/cm and 215 mg/cm and 218 mg/cm
  Right Ventricle Weight: 196 mg and 148 mg and 215 mg and 176 mg and 224 mg and 173 mg and 220 mg and 187 mg and 185 mg
  Right Ventricle Weight/ Tibia Length: 49 mg/cm (2×) and 39 mg/cm and 55 mg/cm and 45 mg/cm and 57 mg/cm and 44 mg/cm and 56 mg/cm and 47 mg/cm
[4]
  Left Ventricle Weight: 910 mg
  Left Ventricle Weight/ Tibia Length: 233 mg/cm
  Right Ventricle Weight: 192 mg
  Right Ventricle Weight/ Tibia Length: 49 mg/cm
  Body weight: significantly lower
[5]
  Ventricular hypertrophy (absolute ventricular weights, ventricular weight to tibia length ratios): Significant left and right ventricular hypertrophy
[6]
  Final Body Weight: 277 ± 5 g
  Left Ventricle Weight: 736 ± 25 mg
  Left Ventricle Weight/ Tibia Length: 194 ± 6 mg/cm
  Right Ventricle Weight: 183 ± 7 mg
  Right Ventricle Weight/ Tibia Length: 48 ± 2 mg/cm
[7]
  Final Body Weight: 270 ± 11 g
  Left Ventricle Weight: 817 ± 22 mg
  Left Ventricle Weight/ Tibia Length: 214 ± 5 mg/cm
  Right Ventricle Weight: 189 ± 5 mg
  Right Ventricle Weight/ Tibia Length: 50 ± 1 mg/cm
[8]
  Final Body Weight: 272 ± 10 g
  Left Ventricle Weight: 910 ± 29 mg
  Left Ventricle Weight/ Tibia Length: 233 ± 7 mg/cm
  Right Ventricle Weight: 192 ± 8 mg
  Right Ventricle Weight/ Tibia Length: 49 ± 2 mg/cm

## COC(=O)[C@@H]1CC2=CC(=O)CC[C@]2(C)[C@@]23O[C@@H]2C[C@@]2(C)[C@@H](CC[C@@]24CCC(=O)O4)[C@H]13 [Eplerenone]
[9]
  Left Ventricle Weight: 804 mg and 898 mg and 789 mg and 851 mg and 668 mg and 833 mg and 886 mg and 756 mg and 751 mg and 795 mg and 915 mg
  Left Ventricle Weight/ Tibia Length: 212 mg/cm and 236 mg/cm and 221 mg/cm and 176 mg/cm and 225 mg/cm and 233 mg/cm and 199 mg/cm and 198 mg/cm and 215 mg/cm and 235 mg/cm
  Right Ventricle Weight: 182 mg and 188 mg (2×) and 176 mg and 189 mg and 139 mg and 371 mg and 193 mg and 158 mg and 155 mg and 225 mg
  Right Ventricle Weight/ Tibia Length: 48 mg/cm and 49 mg/cm (3×) and 46 mg/cm and 37 mg/cm and 100 mg/cm and 51 mg/cm and 42 mg/cm (2×) and 58 mg/cm
[10]
  Left Ventricle Weight: 813 mg
  Left Ventricle Weight/ Tibia Length: 214 mg/cm
  Right Ventricle Weight: 197 mg
  Right Ventricle Weight/ Tibia Length: 52 mg/cm
  Body weight: significantly attenuated
[5]
  Ventricular hypertrophy (absolute ventricular weights, ventricular weight to tibia length ratios): did not impact
[11]
  Left Ventricle Weight: 859 mg and 712 mg and 618 mg and 658 mg and 754 mg and 733 mg and 726 mg and 696 mg and 700 mg and 688 mg
  Left Ventricle Weight/ Tibia Length: 220 mg/cm and 187 mg/cm and 167 mg/cm and 173 mg/cm and 198 mg/cm and 193 mg/cm and 191 mg/cm and 183 mg/cm and 184 mg/cm and 181 mg/cm
  Right Ventricle Weight: 216 mg and 181 mg (2×) and 154 mg and 174 mg and 192 mg and 171 mg and 190 mg and 170 mg and 187 mg
  Right Ventricle Weight/ Tibia Length: 55 mg/cm and 48 mg/cm (2×) and 42 mg/cm and 46 mg/cm and 51 mg/cm and 45 mg/cm (2×) and 50 mg/cm and 49 mg/cm
[12]
  Left Ventricle Weight: 714 mg
  Left Ventricle Weight/ Tibia Length: 188 mg/cm
  Right Ventricle Weight: 182 mg
  Right Ventricle Weight/ Tibia Length: 48 mg/cm
[6]
  Final Body Weight: 287 ± 4 g
  Left Ventricle Weight: 714 ± 20 mg
  Left Ventricle Weight/ Tibia Length: 188 ± 5 mg/cm
  Right Ventricle Weight: 182 ± 5 mg
  Right Ventricle Weight/ Tibia Length: 48 ± 1 mg/cm
[7]
  Final Body Weight: 283 ± 6 g
  Left Ventricle Weight: 813 ± 22 mg
  Left Ventricle Weight/ Tibia Length: 214 ± 6 mg/cm
  Right Ventricle Weight: 197 ± 19 mg
  Right Ventricle Weight/ Tibia Length: 52 ± 5 mg/cm
[8]
  Final Body Weight (g): 331 ± 7^# g
  Left Ventricle Weight: 936 ± 34 mg
  Left Ventricle Weight/ Tibia Length: 240 ± 9 mg/cm
  Right Ventricle Weight: 198 ± 6 mg
  Right Ventricle Weight/ Tibia Length: 51 ± 2 mg/cm
